Measured values published in patent US9326945B2, “Apixaban formulations” (Bristol-Myers Squibb Company, priority 2010, dated 2016).
In brackets after ≈: the same amount, converted by molar mass.

What was measured:
[1] = Aqueous solubility of apixaban; assay type: physicochemical
[2] = Contact angle of apixaban drug substance with water; assay type: physicochemical

**Q.** What does the source list for `COc1ccc(-n2nc(C(N)=O)c3c2C(=O)N(c2ccc(N4CCCCC4=O)cc2)CC3)cc1` [apixaban, 4,5,6,7-tetrahydro-1-(4-methoxyphenyl)-7-oxo-6-[4-(2-oxo-1-piperidinyl)phenyl]-1H-pyrazolo[3,4-c]pyridine-3-carboxamide]?
**A.** dose/solubility ratio ([1]; 10 mg apixaban dose): 250 mL; solubility ([1]; aqueous medium, at all physiological pH): 40 µg/mL (≈ 87.1 µM); contact angle [2]: 54 °
